Data reported in patent US20260256780A1, “COMPOSITIONS FOR INDUCING RAS GTP HYDROLYSIS AND USES THEREOF” (Revolution Medicines, Inc., priority 2023, published 2026).

Each molecule was assayed against T1, GTP-loaded KRAS proteins (residue 1-169 of KRAS4B) (Homo sapiens, UniProt P01116, G12V) (assay: RAS GTP hydrolysis rate assay (GTPase-Glo) with cyclophilin A). Settings: bound in tri-complex with cyclophilin A; in some embodiments KRAS^G12V is the isoform used.
T1 construct: recombinant KRAS proteins (residue 1-169 of KRAS4B); His6 (TEV protease-cleavable) (cleaved yes); made in house; host or cells: E. coli
Type: biochemical
Procedure: The rate of RAS GTP hydrolysis was assayed in the presence of various KRAS mutations. To assess GTP hydrolysis activity, recombinant KRAS proteins (residue 1-169 of KRAS4B) were expressed in E. coli and purified using a TEV protease-cleavable His6-tag and Ni^2+ affinity chromatography. The His6 tag was removed by treatment with TEV protease, and the KRAS protein was isolated by passing through a second Ni^2+ column followed by size exclusion chromatography. The purified KRAS proteins were loaded with GTP by incubation for 2 hours on ice with 2 mM GTP and 10 mM Ethylenediaminetetraacetic Acid, followed by addition of 10 mM MgCl2 and incubation on ice for 1 additional hour. The excess GTP was removed by overnight dialysis against buffer (12.5 mM HEPES, 75 mM NaCl, pH 7.5) at 4° C. The GTP-loaded KRAS protein were flash frozen in liquid nitrogen, then stored at −80° C. until use.
GTP-loaded KRAS proteins (1 μM) were combined with 25 μM of recombinant human cyclophilin A and 10 μM of compound in reaction buffer (12.5 mM HEPES, 75 mM NaCl, 1 mM MgCl2, 1 mM DTT, 1% DMSO, pH 7.5) pre-warmed to 37° C. At fixed time points, aliquots were removed and quenched by heating to 80° C. to denature the proteins, then centrifuged to pellet the protein precipitate. The supernatant was assessed for GTP levels using Promega GTPase-Glo™ according to manufacturer instructions. The levels of GTP as a function of incubation time were fit to a single phase exponential decay to determine the rate constant for hydrolysis activity.
For CO[C@@H](C)c1ncccc1-c1c2c3cc(ccc3n1CC(F)(F)F)CCN(C)C[C@H](NC(=O)[C@H]1C[C@@H]1C)C(=O)N1CCC[C@H](N1)C(=O)OCC(C)(C)C2 (atropisomer, axis not shown) [compound 9], the “hydrolyzer class: RAS(ON) GTP hydrolysis rate relative to the intrinsic hydrolysis rate” value was 9 Weak. With CO[C@@H](C)c1ncccc1-c1c2c3cc(ccc3n1CC(F)(F)F)CCOC[C@H](NC(=O)[C@H]1C[C@@H]1C)C(=O)N1CCC[C@H](N1)C(=O)OCC(C)(C)C2 (atropisomer, axis not shown) [compound 10] the “hydrolyzer class: RAS(ON) GTP hydrolysis rate relative to the intrinsic hydrolysis rate” value was 10 Moderate. In the case of CO[C@@H](C)c1ncc(N2CCN(C)CC2)cc1-c1c2c3cc(ccc3n1CC(F)(F)F)-c1csc(n1)C[C@H](NC(=O)[C@H]1C[C@@H]1C)C(=O)N1CCC[C@H](N1)C(=O)OCC(C)(C)C2 (atropisomer, axis not shown) [compound 11], the “hydrolyzer class: RAS(ON) GTP hydrolysis rate relative to the intrinsic hydrolysis rate” value is reported as 11 Moderate. In the case of CCn1c(-c2cc(N3CCN(C)CC3)cnc2[C@H](C)OC)c2c3cc(ccc31)-c1csc(n1)C[C@H](NC(=O)[C@H]1C[C@@H]1C)C(=O)N1CCC[C@H](N1)C(=O)OCC(C)(C)C2 (atropisomer, axis not shown) [compound 12], the “hydrolyzer class: RAS(ON) GTP hydrolysis rate relative to the intrinsic hydrolysis rate” value is reported as 12 Moderate. In the case of CCn1c(-c2cc(N3CCN(C)CC3)cnc2[C@H](C)OC)c2c3cc(ccc31)-c1csc(n1)C[C@H](NC(=O)[C@H](C(C)C)N(C)C(=O)N(C)C)C(=O)N1CCC[C@H](N1)C(=O)OCC(C)(C)C2 (atropisomer, axis not shown) [compound 13], the “hydrolyzer class: RAS(ON) GTP hydrolysis rate relative to the intrinsic hydrolysis rate” value is reported as 13 Moderate. In the case of CCn1c(-c2cc(N3CCN(C)CC3)cnc2[C@H](C)OC)c2c3cc(ccc31)-c1csc(n1)C[C@H](NC(=O)[C@H](C(C)C)N(C)C(=O)N1CC(N(C)C)C1)C(=O)N1CCC[C@H](N1)C(=O)OCC(C)(C)C2 (atropisomer, axis not shown) [compound 14], the “hydrolyzer class: RAS(ON) GTP hydrolysis rate relative to the intrinsic hydrolysis rate” value is reported as 14 Moderate. In the case of CCO[C@@H]1c2nc(cs2)-c2ccc3c(c2)c(c(-c2cc(N4CCN(C)CC4)cnc2[C@H](C)OC)n3CC)CC(C)(C)COC(=O)[C@@H]2CCCN(N2)C(=O)[C@H]1NC(=O)[C@H]1[C@H](C)[C@@H]1C (atropisomer, axis not shown) [compound 15], the “hydrolyzer class: RAS(ON) GTP hydrolysis rate relative to the intrinsic hydrolysis rate” value is reported as 15 Moderate. With CCO[C@@H]1c2nc(cs2)-c2ccc3c(c2)c(c(-c2cc([C@@H]4CCN5CCOC[C@@H]5C4)cnc2[C@H](C)OC)n3CC)CC(C)(C)COC(=O)[C@@H]2CCCN(N2)C(=O)[C@H]1NC(=O)[C@H]1[C@H](C)[C@@H]1C (atropisomer, axis not shown) [compound 16] the “hydrolyzer class: RAS(ON) GTP hydrolysis rate relative to the intrinsic hydrolysis rate” value was 16 Moderate. CCO[C@@H]1c2nc(cs2)-c2ccc3c(c2)c(c(-c2cccnc2[C@H](C)OC)n3CC)CC(C)(C)COC(=O)[C@@H]2CCCN(N2)C(=O)[C@H]1NC(=O)[C@@H]1[C@@H](C)[C@H]1C(=O)N(C)C (atropisomer, axis not shown) [compound 17] was tested, and the “hydrolyzer class: RAS(ON) GTP hydrolysis rate relative to the intrinsic hydrolysis rate” value was 17 Weak. In the case of CCO[C@@H]1c2nc(cs2)-c2ccc3c(c2)c(c(-c2cc(N4CCN(C)CC4)cnc2[C@H](C)OC)n3CCOC(C)C)CC(C)(C)COC(=O)[C@@H]2CCCN(N2)C(=O)[C@H]1NC(=O)N1CC[C@H]1C (atropisomer, axis not shown) [compound 18], the “hydrolyzer class: RAS(ON) GTP hydrolysis rate relative to the intrinsic hydrolysis rate” value is reported as 18 Weak. CCn1c(-c2cccnc2[C@H](C)OC)c2c3cc(ccc31)-c1csc(n1)C[C@H](NC(=O)[C@H](C(C)C)N(C)C(=O)N1CC(OC)C1)C(=O)N1CCC[C@H](N1)C(=O)OCC(C)(C)C2 (atropisomer, axis not shown) [compound 19] was tested, and the “hydrolyzer class: RAS(ON) GTP hydrolysis rate relative to the intrinsic hydrolysis rate” value was 19 Moderate. In the case of CCn1c(-c2cc(N3CCN(C)CC3)cnc2[C@H](C)OC)c2c3cc(ccc31)-c1cccc(c1)C[C@H](NC(=O)[C@H]1C[C@@H]1C)C(=O)N1CCC[C@H](N1)C(=O)OCC(C)(C)C2 (atropisomer, axis not shown) [compound 20], the “hydrolyzer class: RAS(ON) GTP hydrolysis rate relative to the intrinsic hydrolysis rate” value is reported as 20 Weak.
